Data reported in ChEMBL document CHEMBL1268923, “Identification of 9-fluoro substituted (-)-cytisine derivatives as ligands with high affinity for nicotinic receptors” (Bioorg Med Chem Lett, 2010).

Assays:
[1] = molecular target: Neuronal acetylcholine receptor; alpha4/beta2 (Rattus norvegicus, UniProt P09483+P12390); test: Displacement of [3H]cytisine from rat alpha4beta2 nAChR in rat brain cell membrane; assay type: cell membranes
[2] = molecular target: Neuronal acetylcholine receptor subunit alpha-7 (Rattus norvegicus, UniProt Q05941); test: Displacement of [125I]alpha-Bungarotoxin from alpha7 nAchR in rat brain cell membrane; assay type: cell membranes
Neuronal acetylcholine receptor subunit alpha-7, sequence (Q05941 whole entry): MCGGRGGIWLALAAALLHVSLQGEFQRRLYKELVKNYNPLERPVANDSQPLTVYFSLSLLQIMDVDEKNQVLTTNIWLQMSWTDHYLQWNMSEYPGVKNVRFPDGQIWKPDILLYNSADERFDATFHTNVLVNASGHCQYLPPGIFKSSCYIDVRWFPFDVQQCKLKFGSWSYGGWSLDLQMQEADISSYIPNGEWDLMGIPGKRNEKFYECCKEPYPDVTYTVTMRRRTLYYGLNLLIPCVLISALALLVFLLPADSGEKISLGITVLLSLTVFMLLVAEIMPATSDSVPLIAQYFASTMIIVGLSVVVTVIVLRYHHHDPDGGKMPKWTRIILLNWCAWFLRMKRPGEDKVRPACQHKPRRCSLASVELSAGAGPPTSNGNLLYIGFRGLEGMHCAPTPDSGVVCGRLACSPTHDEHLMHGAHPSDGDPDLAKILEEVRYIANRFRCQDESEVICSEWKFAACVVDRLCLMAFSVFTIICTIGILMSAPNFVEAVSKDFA

Neuronal acetylcholine receptor; alpha4/beta2, sequence (P09483 whole entry): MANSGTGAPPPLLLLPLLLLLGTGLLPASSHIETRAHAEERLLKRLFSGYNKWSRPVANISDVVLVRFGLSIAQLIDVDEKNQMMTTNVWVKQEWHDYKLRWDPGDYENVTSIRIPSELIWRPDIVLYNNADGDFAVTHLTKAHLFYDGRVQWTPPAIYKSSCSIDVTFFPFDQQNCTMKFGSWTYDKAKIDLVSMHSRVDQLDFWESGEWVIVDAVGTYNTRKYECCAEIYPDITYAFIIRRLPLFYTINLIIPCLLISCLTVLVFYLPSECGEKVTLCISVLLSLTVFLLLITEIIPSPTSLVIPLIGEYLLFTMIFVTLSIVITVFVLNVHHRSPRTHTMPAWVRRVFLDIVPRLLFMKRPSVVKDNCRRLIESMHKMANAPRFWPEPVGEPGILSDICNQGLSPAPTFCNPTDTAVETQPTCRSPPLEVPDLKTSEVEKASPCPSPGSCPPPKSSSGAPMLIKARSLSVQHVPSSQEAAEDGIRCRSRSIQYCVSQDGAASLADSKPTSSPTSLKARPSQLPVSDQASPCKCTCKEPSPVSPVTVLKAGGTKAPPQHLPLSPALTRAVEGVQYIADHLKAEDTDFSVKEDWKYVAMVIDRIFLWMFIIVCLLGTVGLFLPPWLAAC
Neuronal acetylcholine receptor; alpha4/beta2, sequence (P12390 whole entry): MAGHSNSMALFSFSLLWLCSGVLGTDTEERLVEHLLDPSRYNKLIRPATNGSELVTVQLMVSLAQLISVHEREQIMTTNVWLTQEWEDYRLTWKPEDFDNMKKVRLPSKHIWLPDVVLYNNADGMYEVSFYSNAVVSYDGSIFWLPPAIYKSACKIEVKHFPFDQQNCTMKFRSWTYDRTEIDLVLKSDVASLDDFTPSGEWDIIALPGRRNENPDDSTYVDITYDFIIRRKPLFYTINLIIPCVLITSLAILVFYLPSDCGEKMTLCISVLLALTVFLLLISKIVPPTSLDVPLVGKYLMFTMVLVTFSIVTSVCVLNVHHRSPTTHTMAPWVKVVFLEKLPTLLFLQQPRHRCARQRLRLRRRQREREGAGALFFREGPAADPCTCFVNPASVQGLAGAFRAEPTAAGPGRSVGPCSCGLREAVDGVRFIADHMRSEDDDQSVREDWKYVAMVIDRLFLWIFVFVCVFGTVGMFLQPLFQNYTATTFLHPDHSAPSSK

Compound	Ki [1] [nM]	Ki [2] [nM]
O=c1c(F)ccc2n1C[C@@H]1CNC[C@H]2C1	6.53	
O=c1c(C(F)(F)F)ccc2n1C[C@@H]1CNC[C@H]2C1	0.22	1000
Cc1ccc2n(c1=O)C[C@@H]1CNC[C@H]2C1	0.24	2000
O=c1cccc2n1C[C@@H]1C[C@@H]2CN(I)C1	0.165	2000
O=c1c(Br)ccc2n1C[C@@H]1CNC[C@H]2C1	0.116	401
O=c1cccc2n1C[C@@H]1C[C@@H]2CN(Br)C1	0.208	112
O=c1cccc2n1C[C@@H]1CNC[C@H]2C1 [CYTISINICLINE]	1.06	1000
